SMILES strings stand for the structures.

For series [1], the system named is A2780 ovarian cancer cells. In words: MTT reduction assay (rapid toxicity, 4 h) on A2780 cells. The format is cell-based. To be noted: 4 h treatment. As to the method:
First, we assessed a set of osmium complexes (similar to Ia [[Kacsir et al., 2022]) in Figure 1] and their sugar-derived ligands, in which the benzoyl protective groups on the carbohydrate moiety were replaced by aliphatic acyl groups of different chain length (straight chain C3-C7–CO). Osmium was selected as a central ion, since osmium complexes had the best biological activity in our previous studies ([Balázs et al., 2022]; [Kacsir et al., 2022]). These compounds were tested on A2780 ovarian cancer cells for toxicity and cytostasis. The therapy of ovarian cancer is centered around platinum compounds ([Brown et al., 2019]; [Sipos et al., 2021]), therefore, it was logical to use a cellular model of ovarian cancer for the initial testing of the compounds. Toxicity was assessed using the MTT assay that measures the activity of mitochondrial complex I. We chose 4 h long treatment as in an MTT assay this time point is suitable to detect rapid, direct toxicity. Cytostasis was assessed after 48 h of treatment using the SRB assay that assesses protein content that corresponds to cell count. The characteristics of the compounds are detailed in Table 2.
3 × 10^3 A2780 cells, were plated to 96 well plates. Cells were treated with the compounds in the concentrations indicated for either 4 h for an MTT assay or for 48 h for an SRB assay. Data is represented as average ± SD, from three biological replicates; individual assays were performed in duplicates. Values were normalized for vehicle treated cells, absorbance for vehicle treated cells equals to 1. […] Except for the Os-6 complex, Two-way ANOVA test was performed and all values were compared with each other (Tukey’s post hoc test). […] Non-linear regression was performed on the data.
3 × 10^3 A2780 cells, 2 × 10^3 ID8 cells and 4 × 10^3 primary fibroblasts were plated to 96 well plates. Cells were treated with the compounds in the concentrations indicated for either 4 h for an MTT assay or for 48 h for an SRB assay. Data is represented as average ± SD, from three biological replicates; individual assays were performed in duplicates. Values were normalized for vehicle treated cells, absorbance for vehicle treated cells equals to 1. Statistical significance was assessed using two-way ANOVA test comparing the free ligand and each complex as a complex-ligand pair. Before the test normality was assessed using the D’Agostino-Pearson test. The ID8 SRB Ir-7+L-7 dataset had lognormal distribution. […] All other datasets had normal distribution. For better visibility the p values are presented in an excel sheet at https://figshare.com/s/2c942a812caea8869a67. Non-linear regression was performed on the A2780 SRB and the ID8 SRB datasets.
MTT reduction assay measures the activity of mitochondrial complex I and can be used to detect toxicity ([Virág et al., 1998]; [Henslee et al., 2016]). The assay was performed similar to ([Bakondi et al., 2003]). Briefly, cells were plated in 96 well plates the day before the assay. Cells were treated with the compounds for 4 h, then MTT was added in 0.5 mg/ml final concentration and cells were incubated at 37°C in a cell incubator. Culture media was removed and the reduced MTT dye was dissolved in dimethyl-sulfoxide (DMSO) and plates were measured in a plate photometer (Thermo Scientific Multiscan GO spectrophotometer, Waltham, MA, United States) at 540 nm. On each plate wells were designed to contain untreated/vehicle-treated cells. In calculations the readings for these wells was considered as 1 and all readings were expressed relative to these values.
On the technique in general: Tetrazolium dyes change colour on reduction, which living cells bring about.

For another series, the system named is A2780 cells. In words: Annexin V - propidium iodide double staining, flow cytometry. The format is cell-based. To be noted: 2 h, complexes at their IC50 (Ru-7 0.846 μM, Os-7 0.578 µM, Ir-7 0.891 µM). The text has this:
We verified the toxic effects of the active Ru, Os and Ir complexes by Annexin V-FITC propidium iodide (PI) double staining. The complexes were applied in concentrations corresponding to their respective IC50 values and we have not detected increases in the apoptotic (Annexin V positive population) or the necrotic (PI positive and Annexin V—PI double positive populations) as opposed to the hydrogen peroxide-treated cells used as positive control (Figure 6).
Cells were then stained with Annexin V and propidium iodide (PI) and cells were subjected to flow cytometry as described in Materials and Methods. The percent of cells in the quadrants are plotted. Data is represented as average ± SD, from three biological replicates, individual assays were performed in duplicates. Normal distribution was achieved by Box-Cox normalization of the data. Statistical significance was determined using a two-way ANOVA test, all measurement points were compared with each other. * indicate statistically significant differences between vehicle-treated (control) and treated cells (complexes or 300 µM H2O2) corresponding to the same quadrant (e.g., vehicle-treated double negative cells vs. H2O2-treated double negative cells) at p <0.05.
The proportions of dead cells was assessed using the Annexin V—propidium iodide assay and was measured using flow cytometry using BD FacsCalibur (BD Biosciences, Franklin Lakes, NJ, United States) instrument and the FITC Annexin V/Dead Cell Apoptosis kit (Life Technologies, Eugene, OR, United States) according to the manufacturer’s instructions similar to ([Bai et al., 2001]). Quadrants were set based on the FITC and PI values observed for the vehicle-treated cells. Ten thousand cells were measured and the percent in the quadrants was used for the subsequent calculation.
Background: Flow cytometry measures light scatter and fluorescence of single cells or particles in a stream.

With `Cc1ccc(C(C)C)cc1.F[P-](F)(F)(F)(F)F.O=C(OCC1OC(n2cc(-c3ccc4ccccc4n3)nn2)C(OC(=O)c2ccccc2)C(OC(=O)c2ccccc2)C1OC(=O)c1ccccc1)c1ccccc1.[Cl][Ru+]` (mixture of isomers) [Ru-7], the “A2780 MTT Max. (maximal inhibition)” value in series [1] came to 23.4%. In the series on A2780 cells, the “induction of cell death (apoptotic / necrotic populations)” value is “do not induce cell death”.
For `Cc1c(C)c(C)[c-](C)c1C.F[P-](F)(F)(F)(F)F.O=C(OCC1OC(n2cc(-c3ccc4ccccc4n3)nn2)C(OC(=O)c2ccccc2)C(OC(=O)c2ccccc2)C1OC(=O)c1ccccc1)c1ccccc1.[Cl][Ir+2]` (mixture of isomers) [Ir-7], the “A2780 MTT Max. (maximal inhibition)” value in series [1] is given as 23.2%. In addition, in the series on A2780 cells, the “induction of cell death (apoptotic / necrotic populations)” value is listed as “do not induce cell death”.
For `Cc1ccc(C(C)C)cc1.F[P-](F)(F)(F)(F)F.O=C(OCC1OC(n2cc(-c3ccc4ccccc4n3)nn2)C(OC(=O)c2ccccc2)C(OC(=O)c2ccccc2)C1OC(=O)c1ccccc1)c1ccccc1.[Cl][Os+]` (mixture of isomers) [Os-7], the “A2780 MTT Max. (maximal inhibition)” value in series [1] is given as 33.0%. Besides, the “induction of cell death (apoptotic / necrotic populations)” value in the series with A2780 cells is listed as “do not induce cell death”.

Values taken from article PMC9923724, “Half sandwich-type osmium, ruthenium, iridium and rhodium complexes with bidentate glycosyl heterocyclic ligands induce cytostasis in platinum-resistant ovarian cancer cells and bacteriostasis in Gram-positive multiresistant bacteria” (Frontiers in Chemistry, 2023).
